Laboratory results as given in patent publication US20060204562A1, “Microprojection arrays with improved biocompatibility” (priority 2005, published 2006).

Key:
Format in all cases: in vivo, hairless guinea pig
[1] = skin site irritation and bleeding after 24 h system wearing (erythema+edema score, photographs)
Experimental: (§1) Pretreatment and integrated systems described In U.S. application Ser. Nos. 10/971,430 and 10/970,901 were employed for the following analysis. The microprojection designs with retention features (i.e., 30a-30c) were used with the integrated system while the microprojection designs without retention features (i.e., 30d-30g) were used with the pretreatment system.
(§2) Following application of the systems, the gel formulation was left in contact with the skin for up to 24 h.
Referring now to FIG. 4, there is shown a series of photographs of the skin site following 24 h system wearing time.
An additional experiment using the pretreatment system was performed to compare microprojections lengths of 120 and 145 μm.
Referring now to FIG. 6, there is shown a graph illustrating the combined erythema+edema score obtained with the various microprojection designs. […] The results thus confirm that lower irritation is observed with shorter microprojections. Further, the skin site was not distinguishable from control sites (24 h wearing with the same formulation, no microprojection treatment).

[2] = urinary excretion of intact RWJ-445167 following IV injection (LC-MS); settings: following IV injection of 0.5 to 3 mg RWJ-445167
[3] = transdermal drug absorption from gel formulation with microprojection systems, extrapolated from urinary excretion
Experimental: as §1, §2

For Cc1cccc(S(=O)(=O)Nc2ccc(C)n(CC(=O)NCCON=C(N)N)c2=O)c1 [RWJ-445167], the “combined erythema+edema score (irritation)” value ([1]; 120 μm microprojections (FIG. 6), 24 h wearing) was “absence of irritation”, the “bleeding / erythema at skin site” value ([1]; pretreatment system, 120 μm microprojection length (FIG. 5)) was “no bleeding or erythema” and the “bleeding at skin site” value ([1]; pretreatment system, 145 μm microprojection length (FIG. 5)) was “some pinpoint bleeding”. For the same compound, the “dose found excreted intact in urine” value [2] was 7.5 % of the dose, the enhancement factor ([3]; 120 μm microprojection array pretreatment vs no microprojection treatment) was “at least 10000 fold” and the duration of delivery ([3]; 120 μm microprojections (FIG. 8)) was “sustained delivery for 24 h”. The drug absorbed ([3]; following pretreatment with a 120 μm microprojection array, 24 h wearing, 20 wt % gel formulation) was “about 2.5 mg” and the drug absorption ([3]; formulation applied to the skin for 24 h in the absence of treatment with a microprojection array, detection limit) was under 0.2 μg absorbed per 24 h.
